# Reference: ChEMBL document CHEMBL1201862, “PubChem BioAssay data set” (2004)
#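 Method: 48-hour compound exposure of cells in 96-well plates, five concentrations, linear interpolation of endpoints. At the GI50, growth is halved.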 Calls of active or inactive are those of the source. Cut-off read from the data, not from the text of the source: active = GI50 up to about 1.1 µM and inactive = higher.
# Tests used:
# Test in all cases: NCI-60 cell line screen, 48 h
# [1] = system: M14
# [2] = system: RPMI-8226
# [3] = system: SN12C
# [4] = system: K562
# [5] = system: U-251
# [6] = system: PC-3
# [7] = system: SF-268
# [8] = system: SF-295
# [9] = system: SK-MEL-5
# [10] = system: HCC 2998
# [11] = system: UACC-62
# [12] = system: HOP-92
# [13] = system: SNB-75
# [14] = system: CAKI-1
# [15] = system: SW-620
# [16] = system: SR
# [17] = system: DU-145
# [18] = system: HCT-116
# [19] = system: SF-539
# [20] = system: SNB-19
SMILES,GI50 [1],GI50 [2],GI50 [3],GI50 [4],GI50 [5],GI50 [6],GI50 [7],GI50 [8],GI50 [9],GI50 [10],GI50 [11],GI50 [12],GI50 [13],GI50 [14],GI50 [15],GI50 [16],GI50 [17],GI50 [18],GI50 [19],GI50 [20]
COc1ccc(-c2ncnc(-c3ccc(OC)c(OC)c3)n2)cc1OC,> 100 µM (inactive),> 10 µM (inactive),> 100 µM (inactive),> 100 µM (inactive),> 100 µM (inactive),> 100 µM (inactive),> 100 µM (inactive),> 100 µM (inactive),> 100 µM (inactive),> 100 µM (inactive),> 100 µM (inactive),> 100 µM (inactive),> 100 µM (inactive),> 100 µM (inactive),> 100 µM (inactive),45.2 µM (inactive),> 100 µM (inactive),> 100 µM (inactive),,
Cc1cc2nnn(C3CCCO3)c2cc1C (configuration not stated),> 100 µM (inactive),,> 100 µM (inactive),> 100 µM (inactive),> 100 µM (inactive),> 100 µM (inactive),> 100 µM (inactive),> 100 µM (inactive),> 100 µM (inactive),> 100 µM (inactive),> 100 µM (inactive),,31.8 µM (inactive),> 100 µM (inactive),,> 100 µM (inactive),> 100 µM (inactive),> 100 µM (inactive),> 100 µM (inactive),
CN(C(=O)Cc1ccccc1)n1cn[n+](CC(=O)OC(C)(C)C)c1,> 10 µM (inactive),0.00119 µM (active),> 10 µM (inactive),> 10 µM (inactive),> 10 µM (inactive),> 10 µM (inactive),> 10 µM (inactive),> 10 µM (inactive),> 10 µM (inactive),> 10 µM (inactive),> 10 µM (inactive),> 10 µM (inactive),,> 10 µM (inactive),> 10 µM (inactive),> 10 µM (inactive),> 10 µM (inactive),> 10 µM (inactive),> 10 µM (inactive),> 10 µM (inactive)
N#CCc1nc(-c2ccccc2)n[nH]1,> 100 µM (inactive),,> 100 µM (inactive),76.6 µM (inactive),,> 100 µM (inactive),> 100 µM (inactive),> 100 µM (inactive),> 100 µM (inactive),> 100 µM (inactive),> 100 µM (inactive),,> 100 µM (inactive),> 100 µM (inactive),> 100 µM (inactive),> 100 µM (inactive),> 100 µM (inactive),> 100 µM (inactive),> 100 µM (inactive),74 µM (inactive)
Clc1cccc(/C=c2\nc(-c3ccccc3)n3c2nc2ccccc23)c1,> 100 µM (inactive),> 100 µM (inactive),> 100 µM (inactive),> 100 µM (inactive),60.4 µM (inactive),> 100 µM (inactive),40.8 µM (inactive),73.3 µM (inactive),> 100 µM (inactive),,21.5 µM (inactive),4.38 µM (inactive),20 µM (inactive),> 100 µM (inactive),> 100 µM (inactive),> 100 µM (inactive),> 100 µM (inactive),> 100 µM (inactive),34.4 µM (inactive),> 100 µM (inactive)
N#C/C(N)=C(C#N)/N=C/Nc1ccc(N)cc1,> 100 µM (inactive),> 100 µM (inactive),> 100 µM (inactive),> 100 µM (inactive),> 100 µM (inactive),> 100 µM (inactive),> 100 µM (inactive),> 100 µM (inactive),29.2 µM (inactive),> 100 µM (inactive),> 100 µM (inactive),,> 100 µM (inactive),> 100 µM (inactive),> 100 µM (inactive),> 100 µM (inactive),> 100 µM (inactive),> 100 µM (inactive),> 100 µM (inactive),> 100 µM (inactive)
CN1CCN(C(=O)CCC(=O)Nc2cc3c(c4ccccc24)-c2ccc4ccccc4c2C3)CC1,1.45 µM (inactive),1.96 µM (inactive),1.79 µM (inactive),1.91 µM (inactive),2.04 µM (inactive),1.64 µM (inactive),1.8 µM (inactive),1.71 µM (inactive),1.6 µM (inactive),1.37 µM (inactive),1.7 µM (inactive),1.73 µM (inactive),,1.53 µM (inactive),,1.79 µM (inactive),1.77 µM (inactive),1.55 µM (inactive),1.73 µM (inactive),2.14 µM (inactive)
N#CCCN(CCCCN(CCC#N)C(=O)Nc1ccccc1)C(=O)Nc1ccccc1,> 100 µM (inactive),> 100 µM (inactive),> 100 µM (inactive),> 100 µM (inactive),> 100 µM (inactive),> 100 µM (inactive),> 100 µM (inactive),> 100 µM (inactive),> 100 µM (inactive),> 100 µM (inactive),> 100 µM (inactive),,15.5 µM (inactive),> 100 µM (inactive),> 100 µM (inactive),> 100 µM (inactive),> 100 µM (inactive),> 100 µM (inactive),,> 100 µM (inactive)
C=C(CCOC)CCC1CCCCC/C1=N\N(C)C (configuration not stated),> 100 µM (inactive),> 100 µM (inactive),> 100 µM (inactive),> 100 µM (inactive),> 100 µM (inactive),> 100 µM (inactive),> 100 µM (inactive),> 100 µM (inactive),> 100 µM (inactive),> 100 µM (inactive),> 100 µM (inactive),,> 100 µM (inactive),> 100 µM (inactive),> 100 µM (inactive),> 100 µM (inactive),> 100 µM (inactive),> 100 µM (inactive),,> 100 µM (inactive)
CC(=O)OCCn1cnc2nc(Nc3ccccc3)nc(Cl)c21,,89.5 µM (inactive),> 100 µM (inactive),49 µM (inactive),58.3 µM (inactive),62.7 µM (inactive),> 100 µM (inactive),82 µM (inactive),60.8 µM (inactive),74.5 µM (inactive),44.1 µM (inactive),13.6 µM (inactive),,,> 100 µM (inactive),54.8 µM (inactive),> 100 µM (inactive),71.1 µM (inactive),> 100 µM (inactive),> 100 µM (inactive)
O=C(O)c1nc2cc(Cl)ccc2[nH]c1=O,> 100 µM (inactive),> 100 µM (inactive),> 100 µM (inactive),> 100 µM (inactive),> 100 µM (inactive),> 100 µM (inactive),> 100 µM (inactive),> 100 µM (inactive),> 100 µM (inactive),> 100 µM (inactive),> 100 µM (inactive),> 100 µM (inactive),,> 100 µM (inactive),> 100 µM (inactive),> 100 µM (inactive),> 100 µM (inactive),> 100 µM (inactive),> 100 µM (inactive),> 100 µM (inactive)
COc1ccc(-n2c(C)nc3ccc(NC4OC(COC(C)=O)C(OC(C)=O)C(OC(C)=O)C4OC(C)=O)cc3c2=O)cc1 (configuration not stated),,27.1 µM (inactive),32 µM (inactive),36.7 µM (inactive),> 100 µM (inactive),> 100 µM (inactive),> 100 µM (inactive),> 100 µM (inactive),> 100 µM (inactive),> 100 µM (inactive),67 µM (inactive),,> 100 µM (inactive),19.7 µM (inactive),39.1 µM (inactive),73.3 µM (inactive),> 100 µM (inactive),21.8 µM (inactive),,> 100 µM (inactive)
CC1C(c2cc(C(C)(C)C)c(O)c(C(C)(C)C)c2)c2cc3c(cc2OC1N1CCOCC1)OCO3 (configuration not stated),17.5 µM (inactive),26.9 µM (inactive),33.8 µM (inactive),27.1 µM (inactive),,14.2 µM (inactive),17.4 µM (inactive),15.3 µM (inactive),17.1 µM (inactive),12.9 µM (inactive),26.4 µM (inactive),,4.34 µM (inactive),,42.2 µM (inactive),64.7 µM (inactive),30.1 µM (inactive),13.7 µM (inactive),12.9 µM (inactive),15.7 µM (inactive)
c1ccc2c(c1)OC(N1CCCC1)c1cnc(N3CCOCC3)nc1-2 (configuration not stated),57.8 µM (inactive),25.7 µM (inactive),32 µM (inactive),62.5 µM (inactive),> 100 µM (inactive),41.3 µM (inactive),40.6 µM (inactive),30.4 µM (inactive),,,43.1 µM (inactive),16.8 µM (inactive),17.1 µM (inactive),27.8 µM (inactive),91 µM (inactive),38.5 µM (inactive),66.8 µM (inactive),> 100 µM (inactive),> 100 µM (inactive),53 µM (inactive)
COc1ccc(/C=C/C(=O)c2cc(CN(C)C)c(O)c(CN(C)C)c2)cc1,,21.8 µM (inactive),21.9 µM (inactive),26.7 µM (inactive),48.1 µM (inactive),23.9 µM (inactive),75.9 µM (inactive),26.8 µM (inactive),16.2 µM (inactive),> 10 µM (inactive),,,19 µM (inactive),47.5 µM (inactive),36.9 µM (inactive),31.9 µM (inactive),34.2 µM (inactive),24.2 µM (inactive),45.3 µM (inactive),29.9 µM (inactive)
